Reference: ChEMBL document CHEMBL3885861, “Open TG-GATES”

Organism: Rattus norvegicus
Test: Open TG-GATES - Regimen: Daily Repeat
Assay type: toxicity, organism-based, Sprague-Dawley
Design: regimen Daily Repeat, gender Male, age 6 weeks
Conditions: in vivo, po, 30 mg/kg, route gavage, dose level High; for APTT / Bas / Eos / Fbg / Hb / Ht / Lym / MCH / MCHC / MCV / Mono / Neu / PT / Plat / RBC / Ret / WBC: tissue Blood; for KIDNEY_L / KIDNEY_R / KIDNEY_TOTAL: tissue Kidney; for LIVER: tissue Liver; for A/G / ALP / ALT / AST / BUN / CRE / Ca / Cl / DBIL / GLC / IP / K / LDH / Na / PL / RALB / TBIL / TC / TG / TP / gamma-GTP: tissue Plasma

Nc1c2c(nc3ccccc13)CCCC2 [TACRINE]
TERMINAL_BW (72 h, time 3 day): 194.7 g
APTT (72 h, time 3 day): 21.3 s
Bas (72 h, time 3 day): 0%
Eos (72 h, time 3 day): 0.7%
Fbg (72 h, time 3 day): 361.7 mg/dL
Hb (72 h, time 3 day): 14.3 g/dL
Ht (72 h, time 3 day): 40.7%
Lym (72 h, time 3 day): 73%
MCH (72 h, time 3 day): 21 pg
MCHC (72 h, time 3 day): 35.1%
MCV (72 h, time 3 day): 59.8 fL
Mono (72 h, time 3 day): 2.7%
Neu (72 h, time 3 day): 22%
PT (72 h, time 3 day): 16.1 s
Plat (72 h, time 3 day): 120.4 x10_4/uL
RBC (72 h, time 3 day): 681.7 x10_4/ul
Ret (72 h, time 3 day): 3%
WBC (72 h, time 3 day): 79 x10_2/uL
KIDNEY_L (72 h, time 3 day): 0.9 g
KIDNEY_R (72 h, time 3 day): 0.9 g
KIDNEY_TOTAL (72 h, time 3 day): 1.9 g
LIVER (72 h, time 3 day): 8.6 g
A/G (72 h, time 3 day): 1.2
ALP (72 h, time 3 day): 1465.3 IU/L
ALT (72 h, time 3 day): 37.3 IU/L
AST (72 h, time 3 day): 82.7 IU/L
BUN (72 h, time 3 day): 16.3 mg/dL
CRE (72 h, time 3 day): 0.2 mg/dL
Ca (72 h, time 3 day): 10.8 mg/dL
Cl (72 h, time 3 day): 107.3 meq/L
DBIL (72 h, time 3 day): 0.0067 mg/dL
GLC (72 h, time 3 day): 169 mg/dL
IP (72 h, time 3 day): 7.4 mg/dL
K (72 h, time 3 day): 4.1 meq/L
LDH (72 h, time 3 day): 229.7 IU/L
Na (72 h, time 3 day): 140.7 meq/L
PL (72 h, time 3 day): 142.7 mg/dL
RALB (72 h, time 3 day): 3.2 g/dL
TBIL (72 h, time 3 day): 0.0233 mg/dL
TC (72 h, time 3 day): 84 mg/dL
TG (72 h, time 3 day): 52 mg/dL
TP (72 h, time 3 day): 5.8 g/dL
gamma-GTP (72 h, time 3 day): 1 IU/L
TERMINAL_BW ([…], time 7 day): 217.1 g
TERMINAL_BW ([…], time 14 day): 249.3 g
TERMINAL_BW ([…], time 28 day): 315.1 g
APTT ([…], time 7 day): 22.7 s
Bas ([…], time 7 day): 0%
Eos ([…], time 7 day): 0.7%
Fbg ([…], time 7 day): 325.7 mg/dL
Hb ([…], time 7 day): 14.2 g/dL
Ht ([…], time 7 day): 40.2%
Lym ([…], time 7 day): 73%
MCH ([…], time 7 day): 21.1 pg
MCHC ([…], time 7 day): 35.3%
MCV ([…], time 7 day): 59.7 fL
Mono ([…], time 7 day): 3.3%
Neu ([…], time 7 day): 22.3%
PT ([…], time 7 day): 16.2 s
Plat ([…], time 7 day): 127.6 x10_4/uL
RBC ([…], time 7 day): 673.7 x10_4/ul
Ret ([…], time 7 day): 4.7%
WBC ([…], time 7 day): 124.6 x10_2/uL
APTT ([…], time 14 day): 23.8 s
Bas ([…], time 14 day): 0%
Eos ([…], time 14 day): 1%
Fbg ([…], time 14 day): 320 mg/dL
Hb ([…], time 14 day): 15.1 g/dL
Ht ([…], time 14 day): 41.9%
Lym ([…], time 14 day): 79.3%
MCH ([…], time 14 day): 20.4 pg
MCHC ([…], time 14 day): 36%
MCV ([…], time 14 day): 56.8 fL
Mono ([…], time 14 day): 1.7%
Neu ([…], time 14 day): 17.3%
PT ([…], time 14 day): 15.8 s
Plat ([…], time 14 day): 126 x10_4/uL
RBC ([…], time 14 day): 737.3 x10_4/ul
Ret ([…], time 14 day): 3.5%
WBC ([…], time 14 day): 110.7 x10_2/uL
APTT ([…], time 28 day): 21.4 s
Bas ([…], time 28 day): 0%
Eos ([…], time 28 day): 1%
Fbg ([…], time 28 day): 295 mg/dL
Hb ([…], time 28 day): 15 g/dL
Ht ([…], time 28 day): 41.2%
Lym ([…], time 28 day): 74%
MCH ([…], time 28 day): 20.1 pg
MCHC ([…], time 28 day): 36.4%
MCV ([…], time 28 day): 55.1 fL
Mono ([…], time 28 day): 2%
Neu ([…], time 28 day): 22%
PT ([…], time 28 day): 16.5 s
Plat ([…], time 28 day): 114.6 x10_4/uL
RBC ([…], time 28 day): 748 x10_4/ul
Ret ([…], time 28 day): 3.3%
WBC ([…], time 28 day): 119.9 x10_2/uL
KIDNEY_L ([…], time 7 day): 1 g
KIDNEY_R ([…], time 7 day): 1 g
KIDNEY_TOTAL ([…], time 7 day): 1.9 g
KIDNEY_L ([…], time 14 day): 1.1 g
KIDNEY_R ([…], time 14 day): 1.1 g
KIDNEY_TOTAL ([…], time 14 day): 2.2 g
KIDNEY_L ([…], time 28 day): 1.2 g
KIDNEY_R ([…], time 28 day): 1.2 g
KIDNEY_TOTAL ([…], time 28 day): 2.4 g
LIVER ([…], time 7 day): 8.9 g
LIVER ([…], time 14 day): 9.8 g
LIVER ([…], time 28 day): 11.2 g
A/G ([…], time 7 day): 1.2
ALP ([…], time 7 day): 923 IU/L
ALT ([…], time 7 day): 41 IU/L
AST ([…], time 7 day): 79.7 IU/L
BUN ([…], time 7 day): 15 mg/dL
CRE ([…], time 7 day): 0.2 mg/dL
Ca ([…], time 7 day): 10.9 mg/dL
Cl ([…], time 7 day): 105.7 meq/L
DBIL ([…], time 7 day): 0.0033 mg/dL
GLC ([…], time 7 day): 176.3 mg/dL
IP ([…], time 7 day): 9.6 mg/dL
K ([…], time 7 day): 4.2 meq/L
LDH ([…], time 7 day): 268.3 IU/L
Na ([…], time 7 day): 141 meq/L
PL ([…], time 7 day): 140.7 mg/dL
RALB ([…], time 7 day): 3 g/dL
TBIL ([…], time 7 day): 0.0167 mg/dL
TC ([…], time 7 day): 70.7 mg/dL
TG ([…], time 7 day): 95.7 mg/dL
TP ([…], time 7 day): 5.6 g/dL
gamma-GTP ([…], time 7 day): 1 IU/L
A/G ([…], time 14 day): 1.2
ALP ([…], time 14 day): 1172 IU/L
ALT ([…], time 14 day): 39 IU/L
AST ([…], time 14 day): 74.7 IU/L
BUN ([…], time 14 day): 19.7 mg/dL
CRE ([…], time 14 day): 0.2 mg/dL
Ca ([…], time 14 day): 10.9 mg/dL
Cl ([…], time 14 day): 106.3 meq/L
DBIL ([…], time 14 day): 0 mg/dL
GLC ([…], time 14 day): 174 mg/dL
IP ([…], time 14 day): 8.1 mg/dL
K ([…], time 14 day): 4.6 meq/L
LDH ([…], time 14 day): 212.7 IU/L
Na ([…], time 14 day): 141 meq/L
PL ([…], time 14 day): 143 mg/dL
RALB ([…], time 14 day): 3 g/dL
TBIL ([…], time 14 day): 0.02 mg/dL
TC ([…], time 14 day): 69.3 mg/dL
TG ([…], time 14 day): 104 mg/dL
TP ([…], time 14 day): 5.5 g/dL
gamma-GTP ([…], time 14 day): 1 IU/L
A/G ([…], time 28 day): 1
ALP ([…], time 28 day): 1280 IU/L
ALT ([…], time 28 day): 35 IU/L
AST ([…], time 28 day): 81 IU/L
BUN ([…], time 28 day): 17 mg/dL
CRE ([…], time 28 day): 0.2 mg/dL
Ca ([…], time 28 day): 10.4 mg/dL
Cl ([…], time 28 day): 106 meq/L
DBIL ([…], time 28 day): 0 mg/dL
GLC ([…], time 28 day): 160 mg/dL
IP ([…], time 28 day): 8.2 mg/dL
K ([…], time 28 day): 4.2 meq/L
LDH ([…], time 28 day): 96 IU/L
Na ([…], time 28 day): 143 meq/L
PL ([…], time 28 day): 128 mg/dL
RALB ([…], time 28 day): 2.9 g/dL
TBIL ([…], time 28 day): 0.03 mg/dL
TC ([…], time 28 day): 71 mg/dL
TG ([…], time 28 day): 64 mg/dL
TP ([…], time 28 day): 5.7 g/dL
gamma-GTP ([…], time 28 day): 1 IU/L
